Patent publication US9944690B2, “Methods for controlling T cell proliferation” (BELLICUM PHARMACEUTICALS, INC., priority 2013, dated 2018)
Entries after “also recorded” stand apart in the source; their conditions may differ. Like-named read-outs stand apart in the source and are kept apart here.

Assays:
[1] = cited from earlier work
[2] = tested on: T cells transduced with RV-172; assay: T cell proliferation in co-culture wells on AP1903 stimulation; conditions: RV-172 T cells with 10 nM AP1903, co-culture 72 hours, both donors
Experimental: Non-transduced T cells or cells transduced with RV-171 (control vector) or RV-172 (iMC vector) were cultured at a 5:1 ratio of T cells to tumor cells in media supplemented with 50 U/ml IL-2, and either with or without 10 nM AP1903. Co-cultures were then incubated at 37° C. and 5% CO2 for 72 hours. Cultures were subsequently analyzed for the presence of GFP tumor cells by fluorescent microscopy and by harvesting the cultures with 0.25% trypsin/EDTA and measuring the frequency of GFP^+CD3^− tumor cells in the culture by flow cytometry.
Following these initial observations, T cells and tumor cells were harvested and analyzed by flow cytometry to determine the frequency of remaining CAPAN-1 GFP^+ tumor cells.

[3] = tested on: cells; assay: Amount of AP1903 needed in vitro for effective signaling of cells; assay type: cell-based
Experimental: The amount of AP1903 needed in vitro for effective signaling of cells is about 10-100 nM (MW: 1412 Da). This equates to 14-140 μg/L or ˜0.014-0.14 mg/kg (1.4-140 μg/kg). The dosage may vary according to the application, and may, in certain examples, be more in the range of 0.1-10 nM, or in the range of 50-150 nM, 10-200 nM, 75-125 nM, 100-500 nM, 100-600 nM, 100-700 nM, 100-800 nM, or 100-900 nM. Doses up to 1 mg/kg were well-tolerated in the Phase I study of AP1903 described above.

[4] = tested on: CAPAN-1-GFP tumor cells; assay: Co-culture of iMC-enabled T cells with CAPAN-1 tumor cells; assay type: cell-based, human; conditions: RV-172 T cells : CAPAN-1-GFP 5:1, 10 nM AP1903, 72 hours
[5] = tested on: T cells transduced with the retrovirus containing iMC (RV-172); assay: AP1903-induced T cell activation by cytokine production (Bio-Plex 27-plex); assay type: cell-based, human; conditions: iMC (RV-172) T cells, 10 nM AP1903, 24 hours, supernatant
Experimental: 5. To assess AP1903-dependent T cell activation of T cells, 1×10^5 non-transduced (NT) or T cells transduced with the control retrovirus (RV-171) or the retrovirus containing iMC(RV-172) were plated in triplicate in 96-well plates and cultured at 37° C. 5% CO2 with media alone, or media containing 10 nM AP1903.
6. After 24 hours, the cells were gently mixed and the plate was centrifuged. Supernatant was then collected and plated into a Bio-Plex Human Cytokine/Chemokine 27-plex plate, which measures the following cytokines and chemokines: • a. Basic-FGF, G-CSF, GM-CSF, IFN-gamma, IL-1Ra, IL-1beta, IL-2, IL-4, IL-5, IL-6, […], IL-7, […], IL-9, IL-10, IL-12p70, IL-13, IL-15, IL-17RA, eotaxin, IP10, MCP-1, MIP-1alpha, MIP-1beta, PDGF-bb, RANTES, TNF-alpha and VEGF. • b. The cytokines and chemokines in the supernatants were subsequently measured and compared to standards in the plate using a Bio-Plex MAGPIX Multiplex Reader.
T cells were stimulated with 10 nM AP1903 for 24 hours then supernatants were assayed for cytokine levels.

For `CC[C@H](C(=O)N1CCCC[C@H]1C(=O)O[C@H](CCc1ccc(OC)c(OC)c1)c1cccc(OCC(=O)NCCNC(=O)COc2cccc([C@@H](CCc3ccc(OC)c(OC)c3)OC(=O)[C@@H]3CCCCN3C(=O)[C@@H](CC)c3cc(OC)c(OC)c(OC)c3)c2)c1)c1cc(OC)c(OC)c(OC)c1` (relative stereo) [AP1903, 2-Piperidinecarboxylic acid, 1-[(2S)-1-oxo-2-(3,4,5-trimethoxyphenyl)butyl]-, 1,2-ethanediylbis[imino(2-oxo-2,1-ethanediyl)oxy-3,1-phenylene[(1R)-3-(3,4-dimethoxyphenyl)propylidene]]ester, [2S-[1(R*),2R*[S*[S*[1(R*),2R*]]]]]-(9Cl)], the “relation of AP1903 plasma levels to dose” value ([1]; 0.01, 0.05, 0.1, 0.5 and 1.0 mg/kg IV over 2 hours) is given as “directly proportional to dose”, the “plasma level as % of maximal concentration” value (“plasma level as %” for short) ([1]; 0.5 hours post-dose) is given as “approximately 18%” and the “plasma level as %” value ([1]; 2 hours post-dose) is given as ~7%. The “plasma level as %” value ([1]; 10 hours post-dose) was ~1%, the well-tolerated doses ([1]; Phase I study) was “up to 1 mg/kg” and the “mean Cmax” value ([1]; plasma, single doses over the 0.01-1.0 mg/kg dose range infused IV over 2 hours, 24 healthy volunteers) was 10 to 1275 ng/mL. The “T cell proliferation / T cell blast activation (inspection, microscopy)” value [2] was “proliferating; also recorded: activation of T cell blasts”, the “amount needed for effective signaling, as dose” value ([3]; converted from 14-140 μg/L) was 14 to 140 µg/kg and the “amount needed for effective signaling, as mass concentration” value ([3]; converted with MW 1412 Da) was 14 to 140 µg/L. For the same molecule, the “amount needed for effective signaling, as dose” value ([3]; figure in brackets after the mg/kg range) was 1.4 to 140 µg/kg, the “amount needed in vitro for effective signaling of cells” value ([3]; in vitro) was 10 to 100 nM and the “GFP+ tumor cells by flow cytometry” value [4] was “reduction of GFP^+ tumor cells; also recorded: induces T cell killing of tumor cells”. For the same molecule, the “GFP+ tumor cells by fluorescent microscopy” value [4] was “very few viable GFP^+ tumor cells; also recorded: elimination of GFP^+ tumor cells”, the Basic-FGF secretion [5] was “did not appear to be induced” and the G-CSF secretion [5] was “did not appear to be induced”. The GM-CSF secretion [5] was “showed induction”, the IFN-gamma secretion [5] was “showed induction” and the IL-1Ra secretion [5] was “did not appear to be induced”. The IL-1beta secretion [5] was “showed induction”, the IL-2 secretion [5] was “did not appear to be induced” and the IL-4 secretion [5] was “showed induction”. The IL-5 secretion [5] was “showed induction”, the IL-6 secretion [5] was “showed induction” and the IL-7 secretion [5] was “did not appear to be induced”. The IL-8 secretion [5] was “showed induction”, the IL-9 secretion [5] was “did not appear to be induced” and the IL-10 secretion [5] was “did not appear to be induced”. For the same molecule, the IL-12p70 secretion [5] was “showed induction”, the IL-13 secretion [5] was “showed induction” and the IL-15 secretion [5] was “did not appear to be induced”. For the same molecule, the IL-17RA secretion [5] was “did not appear to be induced”, the IP10 secretion [5] was “showed induction” and the MCP-1 secretion [5] was “did not appear to be induced”. For the same molecule, the MIP-1alpha secretion [5] was “showed induction”, the MIP-1beta secretion [5] was “showed induction” and the PDGF-bb secretion [5] was “did not appear to be induced”. For the same molecule, the RANTES secretion [5] was “showed induction”, the TNF-alpha secretion [5] was “showed induction” and the VEGF secretion [5] was “did not appear to be induced”. The eotaxin secretion [5] was “did not appear to be induced”.
